This is an account of results in patent publication US4622401A, “Heterocyclic substituted-amino-pyrazolines” (American Cyanamid Company, priority 1982, dated 1986).

For assay [1] the following is noted: reported by Higgs et al., Biochemical Pharmacology 28 1959 (1979); cited from earlier work.
A short description of assay [2]: "writhing syndrome" test for analgesic activity. From the text: A method employed for measuring the in vivo activity of the compounds of the present invention is the "writhing syndrome" test for analgesic activity as described by Seigmund, et al., Proc. Soc, Exp. Biol. and Med., 95:729 (1957) with modifications. Representative compounds of the present invention which are active when tested by the "writhing syndrome" test are: 2-(3-Amino-2-pyrazolin-1-yl)benzothiazole 2-(3-Amino-5-methyl-2-pyrazolin-1-yl)benzothiazole

Regarding `NC1=NN(c2cccc(C(F)(F)F)c2)CC1` [BW 755C, 3-amino-1-[m-(trifluoromethyl)phenyl]-2-pyrazoline], the anti-inflammatory activity entry in assay [1] is reported as “anti-inflammatory activity”.
With `CC1CC(N)=NN1c1nc2ccccc2s1` (stereo not drawn) [Example 13, 2-(3-Amino-5-methyl-2-pyrazolin-1-yl)benzothiazole], in assay [2], the “analgesic activity in vivo, "writhing syndrome" test” value is “active”.
Regarding `NC1=NN(c2nc3ccccc3s2)CC1` [Example 11, 2-(3-Amino-2-pyrazolin-1-yl)benzothiazole], the “analgesic activity in vivo, "writhing syndrome" test” value in assay [2] was “active”.
